Assay results taken from publication PMC9011347, “Small-Molecule Inhibitors Targeting Lipolysis in Human Adipocytes” (Journal of the American Chemical Society, 2022).

Target: T1, PNPLA1 (Homo sapiens, UniProt Q8N8W4)
T1 construct: expressed in transfected cells; host or cells: HEK293T cells
Assay: PNPLA1-dependent ω-O-acylceramide formation in HEK293T cells
Format: cell-based
Settings: NG-497 40 µM, Orlistat 40 µM
Method: Fig. S3: Investigation of off-target effects of NG-497 on structurally and functionally related lipid hydrolases. (a) PNPLA1-dependent formation of acylceramides was monitored in a cell-based assay in HEK293T cells. Experiments were performed in the presence or absence of NG-497 (40 µM) and the non-selective lipase inhibitor Orlistat (40 µM). Orlistat, but not NG-497, inhibited PNPLA1/CGI-58-dependent ω-O-acylceramide formation. (b-h) Enzymes were overexpressed in Expi293 cells and cell lysates were used as source of enzymatic activity. […] Experiments were performed in the presence or absence of NG-497 (100 µM) and the formation of reaction products was monitored. […]
Data were calculated relative to the basal activity detected in LacZ-transfected controls. […]
LPL activity was inhibited using an anti-LPL antibody. All data are presented as mean ± S.D. Statistical significance was determined via ANOVA followed by Bonferroni post hoc test ( ***, p < 0.001). […]
Released free fatty acids were quantified via NEFA C kit (Fujifilm Wako Chemicals, Neuss, Germany) and release of p-nitrophenol was measured at 405 nm. […] Cellular ω-O-acylceramide formation was monitored using [1-14C]linoleic acid as tracer. […] The activity of purified human pancreatic lipase (MilliporeSigma #SRE0028) was determined as previously described7 in the presence or absence of NG-497 (100µM) or Orlistat (20 µM). […]

T1 sequence (Q8N8W4 whole entry): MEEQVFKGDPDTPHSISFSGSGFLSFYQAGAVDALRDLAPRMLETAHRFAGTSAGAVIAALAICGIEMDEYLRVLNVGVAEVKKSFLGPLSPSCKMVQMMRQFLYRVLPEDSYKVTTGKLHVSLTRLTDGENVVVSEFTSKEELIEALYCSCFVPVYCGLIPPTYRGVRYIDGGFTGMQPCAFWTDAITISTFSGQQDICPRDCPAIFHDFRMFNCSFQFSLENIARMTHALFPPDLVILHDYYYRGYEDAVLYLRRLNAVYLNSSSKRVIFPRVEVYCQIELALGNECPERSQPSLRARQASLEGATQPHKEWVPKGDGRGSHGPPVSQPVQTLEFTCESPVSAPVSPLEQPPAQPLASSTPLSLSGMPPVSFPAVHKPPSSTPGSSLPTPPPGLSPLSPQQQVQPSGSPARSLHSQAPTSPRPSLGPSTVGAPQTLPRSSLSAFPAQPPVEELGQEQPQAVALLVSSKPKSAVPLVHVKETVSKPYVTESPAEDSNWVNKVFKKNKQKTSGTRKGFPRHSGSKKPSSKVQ

Compound: CCOc1ccc(-c2cc(OC)cc(C(=O)OC(C)C)n2)cc1 [NG-497]
- PNPLA1/CGI-58-dependent ω-O-acylceramide formation: not affected
